Assay results published in ChEMBL document CHEMBL1201862, “PubChem BioAssay data set” (2004).
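Method: 48-hour compound exposure of cells in 96-well plates, five concentrations, linear interpolation of endpoints. GI50: concentration for 50% inhibition of growth.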 Active and inactive are the calls of the source. Rule as the data show it: active = GI50 up to about 1.1 µM and inactive = higher.

Key:
Test in all cases: inhibition of tumour cell growth, NCI panel, 48 h
[1] = test system: SK-MEL-28
[2] = test system: LXFL 529
[3] = test system: ACHN
[4] = test system: PC-3
[5] = test system: NCI-H460
[6] = test system: LOX IMVI
[7] = test system: HOP-62
[8] = test system: HOP-92
[9] = test system: COLO 205
[10] = test system: HCT-116
[11] = test system: SF-539
[12] = test system: SF-295
[13] = test system: K562
[14] = test system: HT-29
[15] = test system: SK-MEL-2
[16] = test system: BT-549
[17] = test system: Hs-578T
[18] = test system: OVCAR-4
[19] = test system: RPMI-8226
[20] = test system: A498

SMILES	GI50 [1]	GI50 [2]	GI50 [3]	GI50 [4]	GI50 [5]	GI50 [6]	GI50 [7]	GI50 [8]	GI50 [9]	GI50 [10]	GI50 [11]	GI50 [12]	GI50 [13]	GI50 [14]	GI50 [15]	GI50 [16]	GI50 [17]	GI50 [18]	GI50 [19]	GI50 [20]
COc1ccc(OC)c2c(=S)c3ccccc3[nH]c12	> 100 µM (inactive)	56 µM (inactive)	53 µM (inactive)	78.5 µM (inactive)	> 63 µM (inactive)	46.8 µM (inactive)	> 100 µM (inactive)	> 100 µM (inactive)	55.2 µM (inactive)	64.6 µM (inactive)	> 79.1 µM (inactive)	92.3 µM (inactive)	36.3 µM (inactive)	64.6 µM (inactive)	> 100 µM (inactive)	> 100 µM (inactive)	> 100 µM (inactive)	> 100 µM (inactive)	37.9 µM (inactive)	> 92.3 µM (inactive)
Cc1ccc(NC(=O)CCC(=O)C(C#N)c2ccccc2)cc1C (centres undefined)	–	> 100 µM (inactive)	> 100 µM (inactive)	–	> 100 µM (inactive)	> 100 µM (inactive)	–	> 100 µM (inactive)	> 100 µM (inactive)	> 100 µM (inactive)	> 100 µM (inactive)	> 100 µM (inactive)	> 100 µM (inactive)	> 100 µM (inactive)	> 100 µM (inactive)	–	–	> 100 µM (inactive)	> 100 µM (inactive)	> 100 µM (inactive)
Sc1nnc(COc2ccc(Cl)cc2Cl)[nH]1	> 100 µM (inactive)	> 100 µM (inactive)	> 100 µM (inactive)	–	> 100 µM (inactive)	> 100 µM (inactive)	–	> 100 µM (inactive)	–	> 100 µM (inactive)	> 100 µM (inactive)	> 100 µM (inactive)	> 100 µM (inactive)	> 100 µM (inactive)	> 100 µM (inactive)	–	–	> 100 µM (inactive)	> 100 µM (inactive)	> 100 µM (inactive)
C#CC1(O)CC(c2ccccc2)N(C)C(c2ccccc2)C1 (centres undefined)	> 100 µM (inactive)	> 100 µM (inactive)	> 100 µM (inactive)	–	> 100 µM (inactive)	51.5 µM (inactive)	> 100 µM (inactive)	> 100 µM (inactive)	> 100 µM (inactive)	18.4 µM (inactive)	> 100 µM (inactive)	> 100 µM (inactive)	78.9 µM (inactive)	> 100 µM (inactive)	> 100 µM (inactive)	–	–	> 100 µM (inactive)	–	> 100 µM (inactive)
O=C(CCN1CCN(c2cccc(Cl)c2)CC1)N1CCc2c([nH]c3ccccc23)C1c1cccnc1 (centres undefined)	11.9 µM (inactive)	4.19 µM (inactive)	4.78 µM (inactive)	–	4.05 µM (inactive)	3.52 µM (inactive)	9.1 µM (inactive)	1.9 µM (inactive)	3.66 µM (inactive)	7.13 µM (inactive)	13.7 µM (inactive)	4.72 µM (inactive)	2.78 µM (inactive)	3.56 µM (inactive)	6.12 µM (inactive)	–	–	2.58 µM (inactive)	4.72 µM (inactive)	0.282 µM (active)
Nc1c(Cl)ncnc1NCCCNc1ncnc(Cl)c1N	> 100 µM (inactive)	> 100 µM (inactive)	> 100 µM (inactive)	–	> 100 µM (inactive)	> 100 µM (inactive)	> 100 µM (inactive)	> 100 µM (inactive)	> 100 µM (inactive)	> 100 µM (inactive)	> 100 µM (inactive)	> 100 µM (inactive)	> 100 µM (inactive)	> 100 µM (inactive)	> 100 µM (inactive)	–	–	> 100 µM (inactive)	> 100 µM (inactive)	> 100 µM (inactive)
O=C(N/C(=C\c1ccc([N+](=O)[O-])cc1)c1nc2ccccc2[nH]1)c1ccccc1	> 100 µM (inactive)	39.4 µM (inactive)	> 100 µM (inactive)	–	> 100 µM (inactive)	–	> 100 µM (inactive)	45.6 µM (inactive)	> 100 µM (inactive)	72.4 µM (inactive)	> 100 µM (inactive)	> 100 µM (inactive)	> 100 µM (inactive)	95.7 µM (inactive)	> 100 µM (inactive)	–	–	> 100 µM (inactive)	> 100 µM (inactive)	> 100 µM (inactive)
O=S1(=O)OCCOS(=O)(=O)C1Br	> 100 µM (inactive)	> 100 µM (inactive)	–	–	–	–	> 100 µM (inactive)	> 100 µM (inactive)	> 100 µM (inactive)	> 100 µM (inactive)	> 100 µM (inactive)	86.5 µM (inactive)	> 100 µM (inactive)	> 100 µM (inactive)	> 100 µM (inactive)	–	–	> 100 µM (inactive)	> 100 µM (inactive)	> 100 µM (inactive)
COc1ccc(OC)c(/C=C(/C#N)c2ccccc2)c1	23.4 µM (inactive)	34.3 µM (inactive)	49 µM (inactive)	–	15.8 µM (inactive)	16.1 µM (inactive)	40.3 µM (inactive)	17.7 µM (inactive)	20.5 µM (inactive)	49.3 µM (inactive)	28.2 µM (inactive)	39.4 µM (inactive)	3.15 µM (inactive)	6.52 µM (inactive)	5.82 µM (inactive)	–	–	15.9 µM (inactive)	13.4 µM (inactive)	20.2 µM (inactive)
CC(OC1CC(=O)CC2C(=O)C=CC(=O)C12)c1ccccc1 (centres undefined)	20.8 µM (inactive)	7.33 µM (inactive)	11.2 µM (inactive)	–	> 42.9 µM (inactive)	17.2 µM (inactive)	24 µM (inactive)	1.42 µM (inactive)	16.9 µM (inactive)	9.75 µM (inactive)	19.8 µM (inactive)	16.6 µM (inactive)	3.31 µM (inactive)	17.7 µM (inactive)	19.7 µM (inactive)	–	–	18.3 µM (inactive)	17.3 µM (inactive)	18.1 µM (inactive)
N#CCCN(CCC#N)C(=O)c1cccc(C(=O)N(CCC#N)CCC#N)c1	7.45 µM (inactive)	14.1 µM (inactive)	> 100 µM (inactive)	–	> 47.5 µM (inactive)	16.4 µM (inactive)	> 100 µM (inactive)	> 58.7 µM (inactive)	> 70.5 µM (inactive)	> 55.6 µM (inactive)	> 40.9 µM (inactive)	> 77.8 µM (inactive)	> 100 µM (inactive)	19.1 µM (inactive)	> 100 µM (inactive)	–	–	> 100 µM (inactive)	> 50.4 µM (inactive)	> 100 µM (inactive)
NC(=S)Nc1nnc(-c2ccc(-c3nnc(NC(N)=S)o3)cc2)o1	> 100 µM (inactive)	> 100 µM (inactive)	> 100 µM (inactive)	–	> 100 µM (inactive)	> 100 µM (inactive)	> 100 µM (inactive)	> 100 µM (inactive)	> 100 µM (inactive)	> 100 µM (inactive)	> 100 µM (inactive)	> 100 µM (inactive)	> 100 µM (inactive)	> 100 µM (inactive)	> 100 µM (inactive)	–	–	> 100 µM (inactive)	> 100 µM (inactive)	> 100 µM (inactive)
Cc1c2cc[n+](C)cc2c(C)c2c1sc1ccccc12	2.45 µM (inactive)	0.456 µM (active)	4.7 µM (inactive)	1.48 µM (inactive)	0.35 µM (active)	4.06 µM (inactive)	0.452 µM (active)	1.3 µM (inactive)	1.07 µM (active)	3.63 µM (inactive)	0.332 µM (active)	0.143 µM (active)	2.26 µM (inactive)	3.85 µM (inactive)	2.9 µM (inactive)	0.294 µM (active)	0.069 µM (active)	3.4 µM (inactive)	1.22 µM (inactive)	1.45 µM (inactive)
c1ccc2c(c1)[nH]c1c2nc2ncccn21	> 100 µM (inactive)	> 100 µM (inactive)	> 100 µM (inactive)	–	> 100 µM (inactive)	–	> 100 µM (inactive)	> 100 µM (inactive)	–	> 100 µM (inactive)	> 100 µM (inactive)	> 100 µM (inactive)	> 100 µM (inactive)	> 100 µM (inactive)	> 100 µM (inactive)	–	–	> 100 µM (inactive)	–	> 100 µM (inactive)
COC(=O)CCC1(NS(=O)(=O)c2ccc(C)cc2)CCC(C(C)(C)C)CC1 (centres undefined)	11.6 µM (inactive)	15 µM (inactive)	> 10 µM (inactive)	–	31.2 µM (inactive)	17.3 µM (inactive)	17.3 µM (inactive)	7.06 µM (inactive)	13.4 µM (inactive)	7.74 µM (inactive)	13.3 µM (inactive)	11.8 µM (inactive)	4.91 µM (inactive)	13.8 µM (inactive)	17.3 µM (inactive)	–	–	11.2 µM (inactive)	4.08 µM (inactive)	13.6 µM (inactive)
COc1cc(CNc2ccc(C(C)C)cc2)cc(OC)c1OC	27 µM (inactive)	18.9 µM (inactive)	21.8 µM (inactive)	–	13.4 µM (inactive)	16.2 µM (inactive)	23.9 µM (inactive)	20.3 µM (inactive)	–	11.5 µM (inactive)	20.3 µM (inactive)	–	8.57 µM (inactive)	16.9 µM (inactive)	13 µM (inactive)	–	–	25.3 µM (inactive)	14.4 µM (inactive)	30.4 µM (inactive)
